# Results taken from patent publication US20240398812A1 (Caraway Therapeutics, Inc., priority 2021, published 2024).
# Legend:
# Assay type in all cases: cell-based
# TRPML3 = molecular target: T1, TRPML3 (Homo sapiens, UniProt Q8TDD5); assay: Fluorescent TRPML3 assay (as for TRPML1)
# T1 construct: expressed in transfected cells
# T1 sequence (Q8TDD5 1-553): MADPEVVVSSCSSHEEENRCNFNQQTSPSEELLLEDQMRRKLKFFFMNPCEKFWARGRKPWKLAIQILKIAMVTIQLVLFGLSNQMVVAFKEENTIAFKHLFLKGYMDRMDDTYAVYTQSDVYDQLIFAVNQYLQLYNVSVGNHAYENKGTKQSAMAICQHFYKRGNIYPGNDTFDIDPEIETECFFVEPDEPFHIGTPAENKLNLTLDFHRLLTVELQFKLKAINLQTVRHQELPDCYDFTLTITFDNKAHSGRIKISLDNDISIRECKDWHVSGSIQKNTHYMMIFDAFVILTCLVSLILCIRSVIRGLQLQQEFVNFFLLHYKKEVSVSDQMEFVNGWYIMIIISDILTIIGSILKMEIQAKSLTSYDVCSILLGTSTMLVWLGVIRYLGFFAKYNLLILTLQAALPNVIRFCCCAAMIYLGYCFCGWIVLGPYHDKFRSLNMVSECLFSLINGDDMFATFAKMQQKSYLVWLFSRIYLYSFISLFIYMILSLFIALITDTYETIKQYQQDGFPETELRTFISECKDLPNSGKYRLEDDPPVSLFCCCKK
# How it was run: (§1)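 HEK-293 Trex cells with tet-inducible (0.5 ug/mL doxycycline, overnight) surface-targeted mutant channel, Fluo4-AM loaded, suspended in Ringer's with 10 mM calcium. Compounds tested 20 µM to 6 nM final, half-log steps, triplicate; fluorescence at ex 480/em 540 nm. EC50 by non-linear regression of percent activity versus plate controls.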
# TRPML2 = molecular target: T2, TRPML2 (Homo sapiens, UniProt Q8IZK6); assay: Fluorescent TRPML2 assay (as for TRPML1)
# T2 construct: expressed in transfected cells
# T2 sequence (Q8IZK6 1-566): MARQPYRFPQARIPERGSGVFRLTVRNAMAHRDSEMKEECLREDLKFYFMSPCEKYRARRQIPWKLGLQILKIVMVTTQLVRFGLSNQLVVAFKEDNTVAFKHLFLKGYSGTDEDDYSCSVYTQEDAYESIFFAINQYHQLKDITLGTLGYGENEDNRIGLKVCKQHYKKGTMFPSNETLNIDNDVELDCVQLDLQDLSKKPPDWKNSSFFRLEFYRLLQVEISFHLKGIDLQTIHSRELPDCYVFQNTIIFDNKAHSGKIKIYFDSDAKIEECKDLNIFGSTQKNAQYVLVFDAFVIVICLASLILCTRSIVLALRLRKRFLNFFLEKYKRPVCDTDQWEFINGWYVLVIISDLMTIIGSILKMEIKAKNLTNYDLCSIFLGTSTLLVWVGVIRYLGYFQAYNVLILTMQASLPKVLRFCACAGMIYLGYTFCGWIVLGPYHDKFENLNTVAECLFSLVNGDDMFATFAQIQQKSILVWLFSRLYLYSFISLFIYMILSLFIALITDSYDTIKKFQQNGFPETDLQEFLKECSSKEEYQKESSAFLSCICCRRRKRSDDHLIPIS
# How it was run: as §1
# human TRPML1 = human TRPML1 (Homo sapiens, UniProt Q9GZU1); assay: Fluorescent TRPML1 assay (Fluo4-AM calcium fluorescence, HEK-293 Trex cells)
# How it was run: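 Tet-inducible HEK-293 Trex cells stably expressing surface-targeted mutant human TRPML1, induced with 0.5 ug/mL doxycycline overnight, loaded with Fluo4-AM and suspended in Ringer's with 10 mM calcium. Compounds tested from 20 μM to 6 nM final, half-log steps, in triplicate; fluorescence (ex 480/em 540) normalised to plate controls, EC50 by non-linear regression.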
# human TRPML1, sequence (Q9GZU1 whole entry L15A/L16A/L577A/L578A, form open): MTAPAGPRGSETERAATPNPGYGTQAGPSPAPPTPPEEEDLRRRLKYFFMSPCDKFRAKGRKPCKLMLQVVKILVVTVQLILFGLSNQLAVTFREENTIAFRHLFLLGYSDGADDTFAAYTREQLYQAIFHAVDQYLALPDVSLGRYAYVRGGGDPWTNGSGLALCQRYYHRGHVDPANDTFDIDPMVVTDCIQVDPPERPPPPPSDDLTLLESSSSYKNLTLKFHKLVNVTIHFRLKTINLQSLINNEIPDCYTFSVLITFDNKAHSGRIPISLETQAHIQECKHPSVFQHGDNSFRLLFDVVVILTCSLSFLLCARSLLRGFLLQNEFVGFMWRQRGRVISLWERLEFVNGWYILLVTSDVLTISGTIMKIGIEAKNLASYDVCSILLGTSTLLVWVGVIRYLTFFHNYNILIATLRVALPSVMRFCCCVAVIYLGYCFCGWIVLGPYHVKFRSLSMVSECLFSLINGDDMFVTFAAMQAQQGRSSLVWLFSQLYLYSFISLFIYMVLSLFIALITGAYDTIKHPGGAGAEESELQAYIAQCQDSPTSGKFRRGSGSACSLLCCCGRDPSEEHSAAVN
SMILES,"EC50 (TRPML3; Table 3, compounds 201-283)","EC50 (TRPML2; Table 3, compounds 201-283)","EC50 (human TRPML1; Table 3, compounds 201-283)","EC50 (TRPML3; Table 3, compounds 101-177)","EC50 (TRPML2; Table 3, compounds 101-177)","EC50 (human TRPML1; Table 3, compounds 101-177)"
"C[C@@H]1CN(c2ncnc3c2c(C2CCC2)cn3-c2cc(F)cc(F)c2)[C@@H](C)CN1C(=O)C(C)(C)C [Compound 255, 1-((2R,5S)-4-(5-cyclobutyl-7-(3,5-difluorophenyl)-7H-pyrrolo[2,3-d]pyrimidin-4-yl)-2,5-dimethylpiperazin-1-yl)-2,2-dimethylpropan-1-one]",500 to 2000 nM,> 2000 nM,500 to 2000 nM,–,–,–
"C[C@@H]1CN(c2ncnc3c2c(N2CCCC2)cn3-c2cccc(Cl)c2)CCN1C(=O)C1(F)CC1 [Compound 279, (R)-(4-(7-(3-chlorophenyl)-5-(pyrrolidin-1-yl)-7H-pyrrolo[2,3-d]pyrimidin-4-yl)-2-methylpiperazin-1-yl)(1-fluorocyclopropyl)methanone]",500 to 2000 nM,500 to 2000 nM,100 to 500 nM,–,–,–
"C[C@@H]1CN(c2ncnc3c2c(C2CC2)cn3-c2cc(C#N)ccn2)CCN1C(=O)C(C)(C)C [Compound 122, (R)-2-(5-cyclopropyl-4-(3-methyl-4-pivaloylpiperazin-1-yl)-7H-pyrrolo[2,3-d]pyrimidin-7-yl)isonicotinonitrile]",–,–,–,100 to 500 nM,100 to 500 nM,< 100 nM
"C[C@@H]1CN(c2ncnc3c2c(-c2ccccc2F)cn3-c2cc(C#N)ccn2)CCN1C(=O)C(C)(C)C [Compound 109, (R)-2-(5-(2-fluorophenyl)-4-(3-methyl-4-pivaloylpiperazin-1-yl)-7H-pyrrolo[2,3-d]pyrimidin-7-yl)isonicotinonitrile]",–,–,–,< 100 nM,< 100 nM,< 100 nM
"C[C@@H]1CN(c2ncnc3c2c(N2CCCC2)cn3-c2cccc(Cl)c2)[C@@H](C)CN1C(=O)C1(F)CC1 [Compound 280, ((2R,5S)-4-(7-(3-chlorophenyl)-5-(pyrrolidin-1-yl)-7H-pyrrolo[2,3-d]pyrimidin-4-yl)-2,5-dimethylpiperazin-1-yl)(1-fluorocyclopropyl)methanone]",500 to 2000 nM,500 to 2000 nM,100 to 500 nM,–,–,–
"C[C@H]1CN(C(=O)CC(C)(C)C)CCN1c1ncnc2c1c(-c1ccccc1F)cn2-c1cc(C#N)ccn1 [Compound 133, (S)-2-(4-(4-(3,3-dimethylbutanoyl)-2-methylpiperazin-1-yl)-5-(2-fluorophenyl)-7H-pyrrolo[2,3-d]pyrimidin-7-yl)isonicotinonitrile]",–,–,–,< 100 nM,100 to 500 nM,< 100 nM
"C[C@@H]1CN(c2ncnc3c2c(C2CC2)cn3-c2cccc(F)c2)[C@@H](C)CN1C(=O)C(C)(C)C [Compound 214, 1-((2R,5S)-4-(5-cyclopropyl-7-(3-fluorophenyl)-7H-pyrrolo[2,3-d]pyrimidin-4-yl)-2,5-dimethylpiperazin-1-yl)-2,2-dimethylpropan-1-one]",500 to 2000 nM,> 2000 nM,< 100 nM,–,–,–
"COC1(C(=O)N2C[C@H](C)N(c3ncnc4c3c(-c3ccccc3)cn4-c3cc(C#N)ccn3)C[C@H]2C)CC1 [Compound 283, 2-(4-((2S,5R)-4-(1-methoxycyclopropane-1-carbonyl)-2,5-dimethylpiperazin-1-yl)-5-phenyl-7H-pyrrolo[2,3-d]pyrimidin-7-yl)isonicotinonitrile]",< 100 nM,100 to 500 nM,< 100 nM,–,–,–
"COC(C)(C)C(=O)N1C[C@H](C)N(c2ncnc3c2c(C2CC2)cn3-c2cc(C#N)ccn2)C[C@H]1C [Compound 264, 2-(5-cyclopropyl-4-((2S,5R)-4-(2-methoxy-2-methylpropanoyl)-2,5-dimethylpiperazin-1-yl)-7H-pyrrolo[2,3-d]pyrimidin-7-yl)isonicotinonitrile]",< 100 nM,500 to 2000 nM,< 100 nM,–,–,–
"C[C@H]1CN(C(=O)C(C)(C)C)CCN1c1ncnc2c1c(-c1ccccn1)cn2-c1cc(C#N)ccn1 [Compound 117, (S)-2-(4-(2-methyl-4-pivaloylpiperazin-1-yl)-5-(pyridin-2-yl)-7H-pyrrolo[2,3-d]pyrimidin-7-yl)isonicotinonitrile]",–,–,–,100 to 500 nM,500 to 2000 nM,< 100 nM
"CC(C)C(=O)N1CCN(c2ncnc3c2c(-c2ccccc2F)cn3-c2cc(C#N)ccn2)C(C)(C)C1 [Compound 149, 2-(5-(2-fluorophenyl)-4-(4-isobutyryl-2,2-dimethylpiperazin-1-yl)-7H-pyrrolo[2,3-d]pyrimidin-7-yl)isonicotinonitrile]",–,–,–,< 100 nM,< 100 nM,< 100 nM
"C[C@H]1CN(C(=O)C2(F)CC2)CCN1c1ncnc2c1c(N1CCCC1)cn2-c1cccc(Cl)c1 [Compound 278, (S)-(4-(7-(3-chlorophenyl)-5-(pyrrolidin-1-yl)-7H-pyrrolo[2,3-d]pyrimidin-4-yl)-3-methylpiperazin-1-yl)(1-fluorocyclopropyl)methanone]",100 to 500 nM,100 to 500 nM,< 100 nM,–,–,–
"C[C@@H]1CN(c2nccc3c2c(C2CC2)cn3-c2cccc(F)c2)[C@@H](C)CN1C(=O)C(C)(C)C [Compound 229, 1-((2R,5S)-4-(3-cyclopropyl-1-(3-fluorophenyl)-1H-pyrrolo[3,2-c]pyridin-4-yl)-2,5-dimethylpiperazin-1-yl)-2,2-dimethylpropan-1-one]",< 100 nM,> 2000 nM,< 100 nM,–,–,–
"C[C@H]1CN(C(=O)C(C)(C)C)CCN1c1ncnc2c1c(-c1ccccc1F)cn2-c1cc(C#N)ccn1 [Compound 103, (S)-2-(5-(2-fluorophenyl)-4-(2-methyl-4-pivaloylpiperazin-1-yl)-7H-pyrrolo[2,3-d]pyrimidin-7-yl)isonicotinonitrile]",–,–,–,< 100 nM,< 100 nM,< 100 nM
"CC(C)C(=O)N1CCN(c2ncnc3c2c(-c2ccccc2F)cn3-c2cc(C#N)ccn2)C[C@H]1C [Compound 107, (R)-2-(5-(2-fluorophenyl)-4-(4-isobutyryl-3-methylpiperazin-1-yl)-7H-pyrrolo[2,3-d]pyrimidin-7-yl)isonicotinonitrile]",–,–,–,< 100 nM,100 to 500 nM,< 100 nM
"C[C@@H]1CN(c2ncnc3c2c(C2CCC2)cn3-c2cccc(C(F)(F)F)c2)[C@@H](C)CN1C(=O)CC(C)(C)C(F)(F)F [Compound 262, 1-((2R,5S)-4-(5-cyclobutyl-7-(3-(trifluoromethyl)phenyl)-7H-pyrrolo[2,3-d]pyrimidin-4-yl)-2,5-dimethylpiperazin-1-yl)-4,4,4-trifluoro-3,3-dimethylbutan-1-one]",500 to 2000 nM,500 to 2000 nM,100 to 500 nM,–,–,–
"CC(C)(C)C(=O)N1CCN(c2ncnc3c2c(-c2ccccc2F)cn3-c2cc(C#N)ccn2)CC1 [Compound 108, 2-(5-(2-fluorophenyl)-4-(4-pivaloylpiperazin-1-yl)-7H-pyrrolo[2,3-d]pyrimidin-7-yl)isonicotinonitrile]",–,–,–,< 100 nM,< 100 nM,< 100 nM
"CC(C)C(=O)N1C[C@@H](C)N(c2ncnc3c2c(-c2ccccc2F)cn3-c2cc(C#N)ccn2)C[C@@H]1C [Compound 201, 2-(5-(2-fluorophenyl)-4-((2R,5S)-4-isobutyryl-2,5-dimethylpiperazin-1-yl)-7H-pyrrolo[2,3-d]pyrimidin-7-yl)isonicotinonitrile]",100 to 500 nM,100 to 500 nM,500 to 2000 nM,–,–,–
"[2H]C([2H])([2H])C(C(=O)N1C[C@H](C)N(c2ncnc3c2c(-c2ccccc2F)cn3-c2cc(C#N)ccn2)C[C@H]1C)(C([2H])([2H])[2H])C([2H])([2H])[2H] [Compound 231, 2-(4-((2S,5R)-4-(2,2-bis(methyl-d3)propanoyl-3,3,3-d3)-2,5-dimethylpiperazin-1-yl)-5-(2-fluorophenyl)-7H-pyrrolo[2,3-d]pyrimidin-7-yl)isonicotinonitrile]",< 100 nM,< 100 nM,< 100 nM,–,–,–
CC(C)CC(=O)N1C[C@H](C)N(c2ncnc3c2c(C2CC2)cn3-c2cc(C#N)ccn2)C[C@H]1C [Compound 154],–,–,–,< 100 nM,> 2000 nM,100 to 500 nM
